Experimental data reported in the NIST ThermoML archive (doi:10.1016/j.jct.2018.08.005).

Assay: xn = mol fraction of the nth substance listed
Conditions: Liquid; for speed of sound: Frequency=3 MHz, Pulse-echo method; for mass density: Vibrating tube method

CCOC(F)(C(F)(F)C(F)(F)C(F)(F)F)C(F)(C(F)(F)F)C(F)(F)F (stereo not given) [2-trifluoromethyl-3-ethoxydodecafluorohexane] + CC(C)OC(C)C
Conditions	mass density, x1 = 0.25 [kg/m3]	mass density, x1 = 0.375 [kg/m3]	mass density, x1 = 0.5 [kg/m3]	mass density, x1 = 0.625 [kg/m3]	mass density, x1 = 0.75 [kg/m3]	speed of sound, x1 = 0.25 [m/s]	speed of sound, x1 = 0.375 [m/s]	speed of sound, x1 = 0.5 [m/s]	speed of sound, x1 = 0.625 [m/s]	speed of sound, x1 = 0.75 [m/s]
323.15 K, 80000 kPa	1121.1	1255	1372.5	1477.3	1568.7	–	–	–	998.6	971.8
323.15 K, 90000 kPa	1130.2	1265.1	1383.4	1488.8	1580.6	–	–	–	–	–
323.15 K, 100000 kPa	1138.8	1274.5	1393.7	1499.6	1591.9	1193.8	1129.2	1084.4	1061.6	1033.7
323.15 K, 110000 kPa	1146.9	1283.5	1403.2	1509.8	1602.5	–	–	–	–	–
323.15 K, 120000 kPa	1154.5	1291.9	1412.4	1519.5	1612.5	–	–	–	–	–
323.15 K, 130000 kPa	1161.7	1299.9	1421.1	1528.7	1622.1	–	–	–	–	–
323.15 K, 140000 kPa	1168.7	1307.7	1429.4	1537.4	1631.3	–	–	–	–	–
333.15 K, 100 kPa	990.5	1109.5	1216.5	1312.3	1397.5	659.8	617.9	593.4	579.9	568.6
333.15 K, 10000 kPa	1014.9	1137	1245.9	1343.3	1429.3	–	–	–	–	–
333.15 K, 20000 kPa	1034.7	1159.2	1269.8	1368.5	1455.3	816	769.7	737.4	720.8	703.1
333.15 K, 30000 kPa	1051.5	1177.9	1290	1389.8	1477.3	–	–	–	–	–
333.15 K, 40000 kPa	1066.2	1194.2	1307.5	1408.4	1496.6	930.9	878.9	842	823.8	802.8
333.15 K, 50000 kPa	1079.3	1208.8	1323.2	1424.9	1513.8	–	–	–	–	–
333.15 K, 60000 kPa	1091.1	1222	1337.3	1439.9	1529.4	1024.9	968.2	927.8	907.5	884.3
333.15 K, 70000 kPa	1101.9	1234	1350.3	1453.7	1543.7	–	–	–	–	–
333.15 K, 80000 kPa	1112	1244.9	1362.3	1466.4	1556.9	1106.8	1044.5	1001.6	980	954.4
333.15 K, 90000 kPa	1121.4	1255.4	1373.5	1478.4	1569.3	–	–	–	–	–
333.15 K, 100000 kPa	1130.3	1265.1	1384	1489.4	–	–	1111.7	1067.2	1043.9	1016.8
